Structures are written as SMILES.

A short description of this data set: Acute toxicity test (limit test and range finding test), oral administration. Particulars: both, ICR, mouse, in vivo. How it is done: The limit test and the range finding test were carried out using the SPF mice, as stated below, and LD₅₀ values were determined.
The dead mice are weighed and organ examinations are carried out for macroscopical lesions. Also, on the last day of the test all surviving mice are sacrificed and used for examinations.
If the mortality is more than 50% in the limit test, the range finding test is carried out for 14 days with three doses groups including the putative LD₅₀ value. The method is same as the foregoing limit test.
As for `C=CC(C)OC(=O)C1=C(C)NC(C)=C(C(=O)OCCOC)C1c1cccc([N+](=O)[O-])c1` (stereo not drawn) [Example 3, 3-(1-methyl-2-propenyl) 5-(2-methoxyethyl) 2,6-dimethyl-4-(3′-nitrophenyl)-1,4-dihydropyridine-3,5-dicarboxylate], the LD50 (as a rule, the dose expected to kill half of the subjects tested) at 14 days is greater than 5000 mg/kg. Then `C=CC(C)OC(=O)C1=C(C)NC(C)=C(C(=O)OCCN(C)Cc2ccccc2)C1c1cccc([N+](=O)[O-])c1` (stereo not drawn) [Example 1, 3-β-(N-benzyl-N-methylamino)ethyl 5-(1-methyl-2-propenyl) 2,6-dimethyl-4-(3′-nitrophenyl)-1,4-dihydropyridine-3,5-dicarboxylate], with greater than 1000 mg/kg; and `C=C(C)COC(=O)C1=C(C)NC(C)=C(C(=O)OC)C1c1cccc([N+](=O)[O-])c1` (stereo not drawn) [Example 12, 3-methyl 5-(2-methyl-2-propenyl) 2,6-dimethyl-4-(3′-nitrophenyl)-1,4-dihydropyridine-3,5-dicarboxylate], with 1000 mg/kg.

Compound `C=C(C)COC(=O)C1=C(C)NC(C)=C(C(=O)OCCN(C)Cc2ccccc2)C1c1cccc([N+](=O)[O-])c1` (stereo not drawn) [Example 8, 3-β-(N-benzyl-N-methylamino)ethyl 5-(2-methyl-2-propenyl) 2,6-dimethyl-4-(3′-nitrophenyl)-1,4-dihydropyridine-3,5-dicarboxylate] returned an LD50 at 14 days greater than 1000 mg/kg. Then `C=CCOC(=O)C1=C(C)NC(C)=C(C(=O)OCC(=C)C)C1c1cccc([N+](=O)[O-])c1` (stereo not drawn) [Example 13, 3-(2-methyl-2-propenyl) 5-allyl 2,6-dimethyl-4-(3′-nitrophenyl)-1,4-dihydropyridine-3,5-dicarboxylate], with greater than 5000 mg/kg; and `COC(=O)C1=C(C)NC(C)=C(C(=O)OCCN(C)Cc2ccccc2)C1c1cccc([N+](=O)[O-])c1` (stereo not drawn) [Nicardipine, reference compound], with less than 700 mg/kg.

The values above are taken from patent publication EP0324626A1, “1,4-Dihydropyridine derivatives” (priority 1988, dated 1989).
